The nature of series [1]: refractive index (Na D-line) (dimensionless). The settings on record: 293.15 K; 101.33 kPa; Liquid; Standard Abbe refractometry.
For series [2] the following is noted: 101.33 kPa, Liquid, Vibrating tube method.

The text below walks through data of the NIST ThermoML archive (doi:10.1016/j.jct.2011.10.027).

± gives the expanded uncertainty stated by the source.

As a reminder, the refractive index is the speed of light in vacuum divided by its phase velocity in the sample. One may read the mass density as mass per unit of volume.

With `Cc1cccc(C)c1` [1,3-dimethylbenzene], the refractive index in series [1] stood at 1.4936 ± 0.0005. For the same compound, the mass density in series [2] (293.15 K) is listed as 864.18 ± 0.24 kg/m3; in series [2] (298.15 K) it was 859.88 ± 0.24 kg/m3; in series [2] (303.15 K) it was 855.56 ± 0.24 kg/m3; in series [2] (313.15 K) it was 846.85 ± 0.24 kg/m3; in series [2] (323.15 K), 837.92 ± 0.24 kg/m3; in series [2] (333.15 K), 829.01 ± 0.24 kg/m3.

Turning to `CCc1ccccc1` [ethylbenzene], the refractive index in series [1] is given as 1.4922 ± 0.0005. In addition, the mass density in series [2] (293.15 K) turned out to be 866.99 ± 0.24 kg/m3; in series [2] (298.15 K), 862.59 ± 0.24 kg/m3; in series [2] (303.15 K) it was 858.18 ± 0.24 kg/m3; in series [2] (313.15 K) it was 849.33 ± 0.24 kg/m3; in series [2] (323.15 K) it was 840.42 ± 0.24 kg/m3; in series [2] (333.15 K) it was 831.42 ± 0.24 kg/m3.

As for `Cc1ccccc1C` [1,2-dimethylbenzene], the refractive index in series [1] is given as 1.5015 ± 0.0005. Further, the mass density was 879.79 ± 0.23 kg/m3 in series [2] (293.15 K); 875.58 ± 0.23 kg/m3 in series [2] (298.15 K); 871.37 ± 0.24 kg/m3 in series [2] (303.15 K); 862.78 ± 0.24 kg/m3 in series [2] (313.15 K); 854.02 ± 0.24 kg/m3 in series [2] (323.15 K); 845.2 ± 0.24 kg/m3 in series [2] (333.15 K).

Turning to `CCCCN(CCCC)CCCC` [tributylamine], the refractive index in series [1] is listed as 1.4259 ± 0.0005. For the same compound, the mass density in series [2] (293.15 K) is 776.91 ± 0.24 kg/m3; in series [2] (298.15 K), 773.18 ± 0.24 kg/m3; in series [2] (303.15 K), 769.45 ± 0.24 kg/m3; in series [2] (313.15 K), 761.97 ± 0.24 kg/m3; in series [2] (323.15 K), 754.45 ± 0.24 kg/m3; in series [2] (333.15 K), 746.88 ± 0.24 kg/m3.

As for `O=[N+]([O-])c1ccccc1` [nitrobenzene], the refractive index in series [1] is 1.549 ± 0.0005. In addition, the mass density was found to be 1203.13 ± 0.4 kg/m3 in series [2] (293.15 K); 1198.17 ± 0.39 kg/m3 in series [2] (298.15 K); 1193.21 ± 0.39 kg/m3 in series [2] (303.15 K); 1183.3 ± 0.38 kg/m3 in series [2] (313.15 K); 1173.38 ± 0.37 kg/m3 in series [2] (323.15 K); 1163.45 ± 0.36 kg/m3 in series [2] (333.15 K).

Turning to `Cc1ccccc1` [toluene], the refractive index in series [1] is listed as 1.493 ± 0.0005. Moreover, the mass density in series [2] (293.15 K) worked out at 866.89 ± 0.13 kg/m3; in series [2] (298.15 K), 862.24 ± 0.13 kg/m3; in series [2] (303.15 K), 857.58 ± 0.13 kg/m3; in series [2] (313.15 K), 848.2 ± 0.13 kg/m3; in series [2] (323.15 K), 838.76 ± 0.13 kg/m3; in series [2] (333.15 K), 829.22 ± 0.14 kg/m3.

For `Cc1ccc(C)cc1` [1,4-dimethylbenzene], in series [1], the refractive index is 1.4922 ± 0.0005. In addition, the mass density worked out at 861.02 ± 0.24 kg/m3 in series [2] (293.15 K); 856.68 ± 0.24 kg/m3 in series [2] (298.15 K); 852.33 ± 0.24 kg/m3 in series [2] (303.15 K); 843.59 ± 0.24 kg/m3 in series [2] (313.15 K); 834.81 ± 0.24 kg/m3 in series [2] (323.15 K); 825.96 ± 0.24 kg/m3 in series [2] (333.15 K).
